The target of the experiment is T1, RNase L (Homo sapiens, UniProt Q05823).
T1 sequence (Q05823 1-741): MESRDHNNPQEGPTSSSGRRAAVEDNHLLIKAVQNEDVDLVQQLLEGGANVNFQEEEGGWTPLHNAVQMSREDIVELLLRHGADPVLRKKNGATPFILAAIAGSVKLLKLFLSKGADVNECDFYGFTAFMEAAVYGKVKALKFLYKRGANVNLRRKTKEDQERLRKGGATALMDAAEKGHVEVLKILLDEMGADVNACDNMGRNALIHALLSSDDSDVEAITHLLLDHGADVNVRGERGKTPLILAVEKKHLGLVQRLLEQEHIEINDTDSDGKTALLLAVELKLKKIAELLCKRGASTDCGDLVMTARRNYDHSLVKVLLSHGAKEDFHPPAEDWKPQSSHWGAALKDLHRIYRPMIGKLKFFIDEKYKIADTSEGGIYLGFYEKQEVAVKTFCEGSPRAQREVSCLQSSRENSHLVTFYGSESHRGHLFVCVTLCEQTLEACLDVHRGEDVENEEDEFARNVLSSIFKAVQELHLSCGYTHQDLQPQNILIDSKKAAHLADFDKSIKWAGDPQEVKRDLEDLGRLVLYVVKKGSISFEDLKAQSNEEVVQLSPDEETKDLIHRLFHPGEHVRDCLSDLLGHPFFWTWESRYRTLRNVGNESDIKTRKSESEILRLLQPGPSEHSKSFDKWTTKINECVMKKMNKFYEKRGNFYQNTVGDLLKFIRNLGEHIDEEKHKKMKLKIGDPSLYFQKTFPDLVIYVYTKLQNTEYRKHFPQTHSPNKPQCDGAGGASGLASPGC
The experiment is described as follows: FRET RNA cleavage assay. The experiment is classed as biochemical.

What is called IC50 is the concentration at which inhibition is half-maximal.

`COc1cc(/C=C/C(=O)CC(=O)/C=C/c2ccc(O)c(OC)c2)ccc1O` [curcumin] gave an IC50 of about 30 µM.

Source of the values: PMC6326797 (Nucleic Acids Research, 2018).
